Measurements taken from ChEMBL document CHEMBL1201862, “PubChem BioAssay data set” (2004).
Counter-ions that a name gives are not always drawn. Active and inactive are the calls of the source.

Experiments:
[1] = viability inhibitors of stage V gametocytes – luminescence, dose response (AID 1117278); format: functional, cell-based;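 note: gametocytes exposed to compound for 24 hours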
[2] = viability loss in human Jurkat cells – cell-based, luminescence, cytotoxicity control for P. falciparum gametocyte viability project, dose response (AID 1117277); format: functional;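 note: potency reflects loss of cellular ATP meaning fewer viable cells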
[3] = IC50 of insulin release inhibition, rat insulinoma INS-1E line, 5 mM glucose, cell-based (AID 1117331); format: functional
cells [4] = format: functional, cell-based; details: INS-1E
Cytochrome P450 1A2 = biological target: T1, Cytochrome P450 1A2 (Homo sapiens, UniProt P05177);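 note: PubChem cytochrome P450 panel assay, CYP1A2 panel member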
T1 sequence (P05177 whole entry): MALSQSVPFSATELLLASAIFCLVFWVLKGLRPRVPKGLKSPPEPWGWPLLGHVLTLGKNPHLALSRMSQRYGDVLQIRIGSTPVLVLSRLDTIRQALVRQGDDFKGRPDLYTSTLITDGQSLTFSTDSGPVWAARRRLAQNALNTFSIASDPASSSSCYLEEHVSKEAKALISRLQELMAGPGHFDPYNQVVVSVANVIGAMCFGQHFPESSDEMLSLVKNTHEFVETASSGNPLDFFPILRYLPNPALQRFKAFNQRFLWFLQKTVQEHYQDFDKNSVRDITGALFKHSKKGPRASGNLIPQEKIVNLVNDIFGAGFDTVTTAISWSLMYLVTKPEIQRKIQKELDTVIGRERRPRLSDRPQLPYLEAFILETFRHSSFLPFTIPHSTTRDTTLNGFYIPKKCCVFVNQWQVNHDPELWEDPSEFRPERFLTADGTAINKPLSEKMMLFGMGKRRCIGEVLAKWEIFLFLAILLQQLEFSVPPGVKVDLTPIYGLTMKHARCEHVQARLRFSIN

[5] = rise of 2N DNA cells, HeLa – IC50, dose response (AID 1117349); format: functional, cell-based
[6] = rise of 4N DNA cells, HeLa – IC50, dose response (AID 1117351); format: functional, cell-based
[7] = HEK-293T cell viability reduction – luminescence, B-cell screen hits, cytotoxicity control for BCR NF-kB inhibitor project, dose response (AID 489021); format: functional, cell-based;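 note: HEK-293T cells carrying an NF-kB luciferase reporter; cells exposed to compound for about 14 hours before viability readout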
H9c2 = assay: cells; format: functional, cell-based; details: Rattus norvegicus, H9c2, Myocardium
[8] = biological target: T2, Mannose-6-phosphate isomerase (Homo sapiens, UniProt P34949); assay: MPI inhibition at elevated mannose 6-phosphate – biochemical, fluorescence intensity, high mannose 6-phosphate, primary screen (AID 1220)
T2 sequence (P34949 whole entry): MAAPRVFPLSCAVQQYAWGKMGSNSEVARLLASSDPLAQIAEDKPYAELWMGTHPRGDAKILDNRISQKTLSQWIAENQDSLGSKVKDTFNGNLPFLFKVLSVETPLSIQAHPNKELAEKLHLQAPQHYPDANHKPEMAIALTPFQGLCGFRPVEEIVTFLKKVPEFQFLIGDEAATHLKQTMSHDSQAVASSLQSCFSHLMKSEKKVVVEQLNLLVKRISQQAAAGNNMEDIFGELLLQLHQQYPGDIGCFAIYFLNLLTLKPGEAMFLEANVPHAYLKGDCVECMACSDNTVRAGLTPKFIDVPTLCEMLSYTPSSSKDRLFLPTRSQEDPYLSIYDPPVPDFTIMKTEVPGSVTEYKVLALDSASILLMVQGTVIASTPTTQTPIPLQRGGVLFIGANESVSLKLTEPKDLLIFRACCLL

[9] = M. tuberculosis H37Rv growth inhibitors, H37Rv strain (AID 1626); format: functional
[10] = THP-1 cell cytotoxicity, dose response, cytotoxicity control for non-replicating M. tuberculosis project (AID 489025); format: functional
cells [11] = format: functional
[12] = viability of uninfected HEp-2 cells – cell-based, HTS, cytotoxicity control for RSV inhibitor project, dose response (AID 2410); format: functional; details: human respiratory syncytial virus
[13] = HPDE-C7 pancreatic duct cell viability loss – fluorescence, HTS (AID 430); format: functional, cell-based; details: Homo sapiens
[14] = viability loss of HPDE-C7K cells – cell-based, fluorescence, HTS, primary screen (AID 431); format: functional; details: Homo sapiens
Protein Tat = biological target: T3, Protein Tat (Human immunodeficiency virus type 1 group M subtype B (isolate HXB2)(HIV-1), UniProt P04608); format: functional;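 note: tat binding to TAR RNA read out by fluorescence polarization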
T3 sequence (P04608 whole entry): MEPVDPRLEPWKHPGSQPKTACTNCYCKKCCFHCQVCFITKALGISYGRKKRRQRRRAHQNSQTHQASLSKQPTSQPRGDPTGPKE

Bcl-2-like protein 10 = biological target: T4, Bcl-2-like protein 10 (Homo sapiens, UniProt Q9HD36); assay: Bcl-B/TR3 peptide binding disruption – biochemical, fluorescence polarization, FITC-TR3 peptide, selectivity assay for Bfl-1 inhibitor project, primary screen (AID 748);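 note: fluorescence polarization from a fluorescein-labelled TR3 peptide binding purified Bcl-B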
T4 sequence (Q9HD36 whole entry): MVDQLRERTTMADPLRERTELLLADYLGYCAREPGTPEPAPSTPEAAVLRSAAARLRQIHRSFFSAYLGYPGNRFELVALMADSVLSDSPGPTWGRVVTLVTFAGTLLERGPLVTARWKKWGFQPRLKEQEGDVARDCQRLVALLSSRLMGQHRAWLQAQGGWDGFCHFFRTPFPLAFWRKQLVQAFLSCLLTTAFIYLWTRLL

[15] = Trypanosoma cruzi growth suppression in host cells – NIH3T3 host cells, beta-gal luminescence, confirmation (AID 2044); format: functional, cell-based;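 note: intracellular parasites grown in NIH/3T3 mouse fibroblasts as host cells; luminescent beta-galactosidase reporter signal from transgenic T. cruzi replicating inside host cells; inhibitors lower the luminescence signal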
[16] = NIH3T3 cell viability loss – ATP luminescence, mouse fibroblasts, counter-screen, dose response (AID 2010); format: functional, cell-based;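 note: cells exposed to compound for about 90 hours before reading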
INS1 = assay: INS-1E survival protection against cytokine death – cell-based, luminescence, retest, dose response (AID 449756); format: functional; details: Rattus norvegicus;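 note: cell death triggered by IL-1 beta plus TNF-alpha plus IFN-gamma mixture; protective hits raise ATP signal compared with cytokine alone wells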
[17] = biological target: Eukaryotic translation initiation factor 4E (Mus musculus, UniProt P63073); assay: blockers of eIF4G binding by eIF4E – biochemical, TR-FRET, dose response (AID 855); format: functional;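 note: potency for disrupting eIF4E binding to eIF4GI seen as loss of FRET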
Chain of Eukaryotic translation initiation factor 4E (P63073 whole entry): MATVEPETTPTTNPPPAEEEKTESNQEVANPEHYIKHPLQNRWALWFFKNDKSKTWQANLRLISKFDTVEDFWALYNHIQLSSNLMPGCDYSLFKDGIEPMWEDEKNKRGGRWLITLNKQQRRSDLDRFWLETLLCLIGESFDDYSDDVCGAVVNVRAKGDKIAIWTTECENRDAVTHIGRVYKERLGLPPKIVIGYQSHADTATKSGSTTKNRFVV

Aminopeptidase N = biological target: T5, Aminopeptidase N (Plasmodium falciparum FcB1/Columbia, UniProt O96935); assay: malaria alanyl aminopeptidase activity blockers – biochemical, fluorogenic H-Leu-NHMec substrate, 1536-well (AID 1445); set-up: species or system Plasmodium falciparum 3D7, 3D7
T5 sequence (O96935 whole entry): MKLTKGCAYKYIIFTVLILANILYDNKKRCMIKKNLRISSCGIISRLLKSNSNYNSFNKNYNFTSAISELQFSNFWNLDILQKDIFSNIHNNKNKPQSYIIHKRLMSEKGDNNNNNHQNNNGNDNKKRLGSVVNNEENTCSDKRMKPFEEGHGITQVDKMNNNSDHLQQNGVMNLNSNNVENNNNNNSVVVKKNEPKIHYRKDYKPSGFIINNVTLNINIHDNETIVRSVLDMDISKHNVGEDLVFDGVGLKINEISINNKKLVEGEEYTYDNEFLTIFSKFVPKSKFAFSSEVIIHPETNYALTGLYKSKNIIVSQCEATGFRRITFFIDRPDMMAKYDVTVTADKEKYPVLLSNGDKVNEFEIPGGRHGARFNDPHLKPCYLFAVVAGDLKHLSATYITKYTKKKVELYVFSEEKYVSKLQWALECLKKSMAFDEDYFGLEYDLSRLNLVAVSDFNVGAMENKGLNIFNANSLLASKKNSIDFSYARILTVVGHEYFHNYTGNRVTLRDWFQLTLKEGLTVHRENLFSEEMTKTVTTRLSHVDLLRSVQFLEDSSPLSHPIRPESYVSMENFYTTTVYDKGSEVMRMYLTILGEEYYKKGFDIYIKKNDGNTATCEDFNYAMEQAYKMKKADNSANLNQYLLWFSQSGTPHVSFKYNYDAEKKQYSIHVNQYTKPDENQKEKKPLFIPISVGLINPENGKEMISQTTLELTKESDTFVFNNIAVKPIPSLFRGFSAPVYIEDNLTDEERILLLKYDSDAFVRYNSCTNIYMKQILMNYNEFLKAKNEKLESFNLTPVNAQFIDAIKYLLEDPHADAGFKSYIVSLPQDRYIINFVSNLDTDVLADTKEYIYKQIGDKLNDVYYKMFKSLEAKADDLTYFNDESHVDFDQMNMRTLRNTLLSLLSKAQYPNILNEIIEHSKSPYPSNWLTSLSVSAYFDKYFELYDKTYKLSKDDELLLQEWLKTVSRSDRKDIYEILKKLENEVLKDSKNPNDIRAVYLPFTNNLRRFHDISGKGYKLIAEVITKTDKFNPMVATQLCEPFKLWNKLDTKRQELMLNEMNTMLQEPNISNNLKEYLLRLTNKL

[18] = biological target: T6, Bifunctional protein GlmU (Mycobacterium tuberculosis, UniProt P9WMN3); assay: Inhibitors of Mycobacterial Glucosamine-1-phosphate acetyl transferase (GlmU). Secondary screen.; set-up: species or system Mycobacterium tuberculosis H37Rv
T6 sequence (P9WMN3 whole entry): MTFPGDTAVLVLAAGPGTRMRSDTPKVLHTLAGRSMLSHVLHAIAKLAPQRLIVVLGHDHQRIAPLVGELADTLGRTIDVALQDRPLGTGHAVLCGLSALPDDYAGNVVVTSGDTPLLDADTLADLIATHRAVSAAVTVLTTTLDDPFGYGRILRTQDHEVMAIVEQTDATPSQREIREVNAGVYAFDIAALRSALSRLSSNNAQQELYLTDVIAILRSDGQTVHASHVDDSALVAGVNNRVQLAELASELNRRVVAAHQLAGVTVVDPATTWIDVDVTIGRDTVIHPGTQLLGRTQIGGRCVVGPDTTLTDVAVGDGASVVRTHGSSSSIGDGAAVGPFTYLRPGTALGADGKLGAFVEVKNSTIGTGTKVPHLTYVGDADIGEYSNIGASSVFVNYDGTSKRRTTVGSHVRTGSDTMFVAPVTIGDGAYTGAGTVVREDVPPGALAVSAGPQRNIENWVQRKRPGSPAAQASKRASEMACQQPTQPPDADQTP

[19] = luciferase reporter signal suppression in cells – H4 neuroglioma cells, luminescence, dose response (AID 1990); format: functional, cell-based
[20] = Luminescence Cell-Based Dose Response HTS to Identify Inhibitors of 5'UTR Stem-Loop Driven Prion Protein mRNA Translation in H4 Neuroglioblastoma Cells. [Related pubchem assays: 1827 (Project Summary), 1813 (Primary HTS)]; format: functional
[21] = alpha-synuclein stem-loop luciferase translation blockers – H4 neuroglioma cells, luminescence, confirmation (AID 1988); format: functional, cell-based

## COc1ccc(-c2nc(C[S+]([O-])CC(=O)NCCCN3CC(C)CC(C)C3)c(C)o2)cc1OC (stereo not drawn)
[1]
  IC50: > 109 µM (inactive)
[2]
  IC50: > 83.3 µM (inactive)

## CN(C)CCN(Cc1ccc(Cl)cc1)c1ccccn1 [CHLOROPYRAMINE]
[3]
  IC50: 6.14 µM (inactive)
Cells [4]
  IC50: 16.8 µM (inactive)
Cytochrome P450 1A2
  AC50: 12.6 µM (inconclusive)

## CN(C)CCC=C1c2ccccc2CCc2ccccc21 [AMITRIPTYLINE HYDROCHLORIDE]
[5]
  IC50: > 10 µM (inactive)
[3]
  IC50: 3 µM (active)
Cells [4]
  IC50: > 33.3 µM (inactive)
[6]
  IC50: > 10 µM (inactive)

## CC(C)N1C(=O)S/C(=C/c2ccc3c(c2)n(C)c(=O)n3C)C1=O
[7]
  IC50: > 80 µM (inactive)
H9c2
  IC50: 32.2 µM (inactive)

## CCCc1cc(O)nc(SCC(=O)N2CCN(S(=O)(=O)c3ccc4ccccc4c3)CC2)n1
[1]
  IC50: > 109 µM (inactive)
[2]
  IC50: > 83.3 µM (inactive)

## C/C(=C\C(=O)c1cccnc1)Nc1ccc(C(=O)O)cc1
[8]
  IC50: > 50 µM (not active)

## COc1ccc(NC(=O)c2ccc(COCC(F)(F)C(F)F)cc2)cc1
[9]
  IC50: > 100 µM (active)
[10]
  CC50: > 40 µM (active)
Cells [11]
  IC50: 47.8 µM (active)

## CCOC(=O)CNC(=O)c1cc(OC)cc(OC)c1
[1]
  IC50: > 109 µM (inactive)
[2]
  IC50: > 83.3 µM (inactive)

## COc1cc2c(C#N)c(N3CCc4ccccc4C3)nc(N)c2c(N)n1
[12]
  CC50: 15.2 µM (active)
[13]
  EC50: 7.82 µM (active)
[14]
  EC50: 8.37 µM (active)
[8]
  IC50: > 50 µM (not active)

## CCC(=O)Nc1cc(C)c(NC(=O)C23CC4CC(CC(C4)C2)C3)cn1
Protein Tat
  IC50: > 100 µM (active)

## COC(=O)c1[nH]c2cccc(OC)c2c1NC(=O)CCN1CCC(C(N)=O)CC1
Bcl-2-like protein 10
  IC50: > 100 µM (inactive)

## N=c1c2c(n(Cc3cccc(Cl)c3)c3c1CCC3)CCCC2
[15]
  EC50: 0.167 µM (active)
[16]
  EC50: > 60 µM (inconclusive)
[7]
  IC50: > 80 µM (inactive)
INS1
  AC50: 6.82 µM (active)

## Nc1nnc(SCc2ccccc2Cl)s1
[17]
  IC50: > 64 µM (inactive)

## CCC1Cc2c(nc(N)c3c(N)nc(N4CCCCC4)c(C#N)c23)O1 (stereo not drawn)
[8]
  IC50: > 50 µM (not active)

## CC1(C)CC(NC(=O)c2sc3cc(Cl)ccc3c2Cl)CC(C)(C)N1
[9]
  IC50: > 100 µM (active)

## O=C1NC(=S)S/C1=C\c1coc2ccc(O)cc2c1=O
Aminopeptidase N
  IC50: 38.8 µM (active)
[18]
  IC50: 112 µM (active)

## CCOC(=O)c1cc2c(=O)n3ccccc3nc2n(CC(C)C)/c1=N/C(=O)c1c(-c2c(F)cccc2Cl)noc1C
[19]
  EC50: 14.1 µM (active)
[20]
  EC50: 15.8 µM (active)
[21]
  EC50: 42.8 µM (active)
[7]
  IC50: > 80 µM (inactive)
